Patent US20020115688A1, “Screen for glutamate reuptake inhibitors, stimulators, and modulators” (priority 2000, published 2002)
Read-outs that look alike come from different tables or passages of the source.

Assays:
[1] = tested on: glutamate transporters (GLAST and GLT1); test: [3H]-4MG binding to rat brain membrane homogenates; conditions: FIG. 5
Description: (§1) Rat brain tissue, either freshly dissected or stored frozed at −20° C. is homogenized in HEPES buffer containing Na^+(5 mM HEPES, 96 mM NaCl, 1.8 mM CaCl2, 1 mM MgCl2 (pH 7.5 at 25° C.)), and membranes are washed twice in the same buffer using standard methods for subcellular fractionation and the preparation of brain membranes. Brain tissue is weighed and homogenized in 15 ml of assay buffer using a Polytron tissue homogenizer (setting 4, 10-15 seconds). […] The homogenate is centrifuged again (as above) and the pellet re-suspended in 20 to 25 volumes of buffer. Membrane homogenates make up 20% of final assay volume. Binding assays are also performed in the above buffer.
(§2) The range of concentrations of the receptor compound (for example, 10 nM-1 mM) is varied dependent on whether all or only a trace of the receptor compound is labeled. Following incubation of the receptor compounds (bound to the transporters) in the presence or absence of test compounds, binding is terminated by rapid filtration through Whatman GF/B filter discs and washing 3 times with buffer using a Brandel cell harvester. Binding is determined by any technique suitable for the label used. For isotope labels, scintillation spectrometry is preferred.
(§3) Forebrain tissue from female Sprague Dawley rats was homogenised in HEPES buffer containing Na^+, and membranes were washed twice in the same buffer. Binding experiments were also performed in this buffer. […] Binding was determined by scintillation spectrometry. A full range of association, dissociation, saturation and inhibition studies was performed over varying incubation times (up to 60 min). Data were analyzed using computer-assisted curve fitting. Values are expressed as mean of at least triplicate determinations and multiple experiments.
(§4) A full range of association, dissociation, saturation and inhibition studies was performed over varying incubation times (up to 60 min). Data were analyzed using computer-assisted curve fitting. Values cited are expressed as mean of at least triplicate determinations and multiple experiments.

GLAST = molecular target: T1, GLAST (Rattus norvegicus, UniProt P24942); conditions: at concentrations below 1 mM; cited from earlier work
T1 sequence (P24942 1-543): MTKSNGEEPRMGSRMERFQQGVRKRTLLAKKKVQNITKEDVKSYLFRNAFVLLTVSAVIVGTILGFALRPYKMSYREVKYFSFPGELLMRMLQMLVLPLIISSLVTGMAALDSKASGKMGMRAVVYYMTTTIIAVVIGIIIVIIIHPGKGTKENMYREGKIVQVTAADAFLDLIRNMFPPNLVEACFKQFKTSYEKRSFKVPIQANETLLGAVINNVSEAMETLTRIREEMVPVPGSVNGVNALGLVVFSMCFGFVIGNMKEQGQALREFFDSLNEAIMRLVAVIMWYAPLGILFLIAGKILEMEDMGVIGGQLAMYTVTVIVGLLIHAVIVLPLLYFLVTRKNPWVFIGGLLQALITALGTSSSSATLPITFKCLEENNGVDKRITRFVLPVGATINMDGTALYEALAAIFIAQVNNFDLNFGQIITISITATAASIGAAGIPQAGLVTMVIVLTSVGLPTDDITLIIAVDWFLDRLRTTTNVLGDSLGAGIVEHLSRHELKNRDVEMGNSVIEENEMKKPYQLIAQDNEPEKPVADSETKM

[2] = tested on: T2, glutamate transporters (GLAST and GLT1); test: [3H]-4MG binding to rat brain membrane homogenates; conditions: for displacement of 4MG binding: at or above 100 μM, FIG. 5; for IC50: read-out: IC50 for displacement of [3H]-4MG binding
T2 construct: Bmax; other: rat brain membrane homogenates; other: 20 nM [3H]-4MG, 15 minutes at 4° C; KD; association t½
Description: as §1, §2, §3, §4

[3] = Hydrolysis of prodrug to the acid form; type: in vitro ADME; conditions: prodrug ester cleavage
From the text: The ester, carbonate, and amine bond in any prodrug forms of compounds identified by the disclosed method can be readily cleaved in vivo. Therefore, prodrug compositions can be hydrolyzed to the corresponding acids form in plasma.

[4] = 20 nM [3H]-4MG, 15 minutes at 4° C., FIG. 3, FIG. 4

## NCCCC(=O)O [GABA, γ-aminobutyric acid]
[1]
  effect on 4MG and/or D-aspartate binding to GluTs: failed to affect

## C=C(C)[C@H]1CN[C@H](C(=O)O)[C@H]1CC(=O)O [KA, kainate]
GLAST
  binding to GLAST: do not bind

## CN[C@H](CC(=O)O)C(=O)O [NMDA, N-methyl-D-aspartate]
[2]
  displacement of 4MG binding: failed to significantly displace

## COC(=O)[C@H](C)C[C@H](N)C(=O)OC [compound 2, (2S,4R)-4-methyl glutamic acid dimethyl ester]
[3]
  hydrolysis to (2S,4R)-4-methyl glutamic acid (1): readily hydrolyzed

## N[C@H](C(=O)O)[C@H]1C[C@H]1C(=O)O [CCG-III, (2S,3S,4R)-2-(carboxycyclopropyl)glycine]
[2]; [4]
  IC50: 1.2 µM

## O=C(O)[C@H]1CN[C@H](C(=O)O)C1 [PDC, L-trans-pyrrolidine-2,4-dicarboxylate]
[2]; [4]
  IC50: 2.9 µM

## NCC(=O)O [GLY, glycine]
[1]
  effect on 4MG and/or D-aspartate binding to GluTs: failed to affect

## CC(C)(C)c1o[nH]c(=O)c1CC(N)C(=O)O (stereo not shown) [ATPA]
[1]
  effect on 4MG and/or D-aspartate binding to GluTs: failed to affect

## N[C@@H](Cn1cc(F)c(=O)[nH]c1=O)C(=O)O [FW, fluorowillardiine]
[2]
  displacement of 4MG binding: failed to significantly displace

## N[C@@H](CC(=O)O)C(=O)O [L-aspartate]
[2]; [4]
  IC50: 7.5 µM

## N[C@@H](COS(=O)(=O)O)C(=O)O [SOS, L-serine-O-sulphate]
[2]
  IC50: 40 µM

## CC(C)[C@H]1CN[C@H](C(=O)O)[C@H]1CC(=O)O [DHK, L-Dihydrokainate]
GLAST
  binding to GLAST: do not bind

## N[C@@H](Cn1cc(I)c(=O)[nH]c1=O)C(=O)O [IW, iodowillardine]
[1]
  effect on 4MG and/or D-aspartate binding to GluTs: failed to affect

## C[C@H](C[C@H](N)C(=O)O)C(=O)O [4MG, (2S,4R)-4-methyl glutamic acid]
[2]; rat brain membrane homogenates, FIG. 1
  Kd: 5.4 µM

## CC(CC(=O)O)C(N)C(=O)O (racemic) [3MG, (±)-threo-3-methylglutamate]
GLAST
  binding to GLAST: do not bind

## Cc1onc(O)c1CC(N)C(=O)O (stereo not drawn) [AMPA, α-amino-3-hydroxy-5-methyl-4-isoxazolepropionate]
[2]
  displacement of 4MG binding: failed to significantly displace
